Test results published in paper PMC9519446, “Discovery of an Orally Active Benzoxaborole Prodrug Effective in the Treatment of Chagas Disease in Non-human Primates” (Nature microbiology, 2022).
pIC50: −log10 of the molar value. “And” between values parts separate entries of the source, which are not always exact repeats. Equal entries are not always repeated. Where two headings read alike, the source gives them in different places.

Assays:
[1] = system: Luciferase-expressing T. cruzi (Brazil strain); experiment: In vivo killing time assay (footpad bioluminescence); design: species or system C57BL/6 mice; conditions: for Bioluminiscence signal of the feet of mice infected with Luciferase expresssing T. cruzi: individual feet
Protocol: C57BL/6 mice were infected with 2.5x10^5 Luciferase-expressing T. cruzi (Brazil strain) in the foot pads, and two days later one oral dose of AN14353 (25 mg/kg) was administered. The bioluminescent signal in the feet after i.p. injection of D-luciferin (PerkinElmer; 250mg/kg) was measured in a Lumina II IVIS imager (PerkinElmer).

[2] = system: CPSF3-OE T. cruzi intracellular amastigotes; experiment: microbe, parasite or virus in culture; format: cell-based; conditions: Trypanosoma cruzi, read-out: CPSF3-OE IC50, intracellular amastigotes
Protocol: (§1) The in vitro anti-T. cruzi amastiogote activity assay was performed and optimized based on the protocol described previously. The change in tdTomato fluorescence intensity was determined as a measurement of growth over 72 hours of culture. For assaying drug effects on extracellular amastigotes, trypomastigotes were collected from infected Vero cell cultures and converted in acidic media as previously described. Amastigotes (50,000/well) were incubated with 2-fold serial dilutions of compounds for 48 hours. The ATP production was used as an indication of growth in this case, and was measured by ATPlite Luminescence ATP Detection Assay System (PerkinElmer). Both fluorescence and luminescence were read using a BioTek Synergy Hybrid Multi-Mode reader equipped with the software Gene5 v 2.0 (BioTek). The dose-response curve was generated by […] analysis with GraphPad Prism v9.4.0 (GraphPad Software).
The CPSF3 gene was amplified using primers ‘[…]’ and ‘[…]’, and integrated into the pTrex vector [47] by NEBuilder HiFi DNA assembly (New England Biolabs). The construct of pTrex-CPSF was then transfected into Brazil tdTomato epimastigotes and selected by 60ug/ml blasticidin.
To confirm the CPSF overexpression in the selected transfectants, RNA was extracted as previously described and converted to cDNA using SuperScript Reverse Transcriptase (Invitrogen). Quantitative PCR reactions were performed in triplicate on the C1000 Touch Bio-Rad CFX96 real-time PCR detection system for CPSF using primer sets CPSF-1 (5'-[…]-3' and 5'-[…]-3') and CPSF-2 (5'-[…]-3' and 5'-[…]-3') in both control and CPSF over-expressing parasites, and the expression level was normalized to tubulin which was amplified using primers: ‘[…]’ and ‘[…]’.

[3] = In vitro micronucleus study; format: cell-based
[4] = system: representative cytochrome P450 enzymes; experiment: Cytochrome P450 inhibition; format: in vitro ADME; conditions: 10 uM
[5] = system: broad array of mammalian enzymes, receptors and ion channels; experiment: Preliminary safety pharmacology panel; format: binding
T. cruzi Brazil strain = experiment: Mouse cure assays (daily oral treatment, immunosuppression, qPCR of skeletal muscle, blood microscopy, hemoculture); format: in vivo, C57BL/6 mice; conditions: for Parasite equivalent/ 50 ng of DNA of skeletal muscle: individual mice; for Parasite Equivalents/50ng of DNA of skeletal muscle: individual animals
Protocol: Male or female C57BL/6 mice were intraperitoneally infected with 10^4 trypomastigotes of the Brazil strain. Mouse infection was confirmed at 25-30 dpi by detection of CD8^+ T cells specific against the T. cruzi TSKb20 peptide in blood. Compounds resuspended in 1% carboxymethyl cellulose and 0.1% Tween 80, were administered daily by gavage at the specified concentrations. In order to optimally detect persistent infection, immune responses in the mice were suppressed by intraperitoneal injection of four doses of cyclophosphamide every 2-3 days (200 mg/kg/day), beginning one week after the end of therapeutic treatment. At the end of the immunosuppression regimen, peripheral blood was checked under light microscope for parasites and cultured in LDNT media. Mouse skeletal muscle samples were obtained at the end of the immunosuppression and processed for T. cruzi-DNA detection by qPCR as previously described.

[6] = system: T. cruzi intracellular amastigotes; experiment: In vitro anti-T. cruzi intracellular amastigote growth inhibition assay (tdTomato fluorescence over 72 hours, Vero cells); format: cell-based, Trypanosoma cruzi
Protocol: as §1

[7] = Plasma protein binding (cyno); format: in vitro ADME
[8] = system: CPSF3 mutant T. cruzi intracellular amastigotes; experiment: Intracellular amastigote assay with CPSF3 Asn to His mutant T. cruzi; format: cell-based, Trypanosoma cruzi; conditions: for % of maximum: Fig 5.d, CPSF3-mutant
Protocol: as §1
To generate CPSF3 mutant, a RNP c omplex was transfected into Brazil tdTomato strain epimastigotes to target the CPSF3 gene (TcBrA4_0124800), together with a repair template that contained the mutation of Asn^231 to His[21]. The sgRNA targeted the ‘[…]’ site. […] The ultimate resistant parasites were validated to have acquired the Asn^231His mutation in CPSF3 via sequencing.

[9] = Fig. 3b, mice treated for 40 days
[10] = Fig. 3c, mice treated for 20 days
[11] = Trypanosoma cruzi, Vero, read-out: WT IC50, WT intracellular amastigotes, control of CPSF3-OE comparison
[12] = Trypanosoma cruzi, Vero, in vitro, Fig. 1a, Extended Data Fig. 1a, read-out: T. cruzi IC50

Cc1c(C(=O)NC(C(=O)OCc2ccc(F)c(F)c2)C(C)C)ccc2c1B(O)OC2 (stereo not drawn) [AN14353]
Bioluminiscence signal of the feet of mice infected with Luciferase expresssing T. cruzi ([1]; dpi 0): 38900 and 50000 and 58900 and 53200 and 27400 and 49600
Bioluminiscence signal of the feet of mice infected with Luciferase expresssing T. cruzi ([1]; dpi 6): 16800 and 26800 and 41700 and 19800 and 27400 and 55100
Bioluminiscence signal of the feet of mice infected with Luciferase expresssing T. cruzi ([1]; dpi 12): 53200 and 26000 and 25400 and 27200 and 20400 and 32200
Bioluminiscence signal of the feet of mice infected with Luciferase expresssing T. cruzi ([1]; dpi 24): 28700 and 38600 and 17100 and 17600 and 12200 and 16200
Bioluminiscence signal of the feet of mice infected with Luciferase expresssing T. cruzi ([1]; dpi 30): 38600 and 26900 and 29300 and 28500 and 15800 and 33500
Bioluminiscence signal of the feet of mice infected with Luciferase expresssing T. cruzi ([1]; dpi 48): 13500 and 15700 and 12600 and 12800 and 9070 and 11900
Bioluminiscence signal of the feet of mice infected with Luciferase expresssing T. cruzi ([1]; dpi 72): 90400 and 76200 and 47100 and 14600 and 38700 and 41000
in vivo trypanocidal activity (killing time) ([1]; single oral dose 25 mg/kg): rapid in vivo trypanocidal activity
pIC50 [2]: 8.72
genotoxicity, in vitro micronucleus [3]: non-genotoxic
inhibition of representative cytochrome P450 enzymes [4]: did not demonstrate significant inhibition
affinity for mammalian enzymes, receptors and ion channels [5]: little to no affinity
genotoxicity, Ames (Ames study): non-genotoxic
oral absorption (in words) (Pharmacokinetics in mice; mice, dose proportionality evaluation): solubility-limited absorption
dose proportionality of exposure (Pharmacokinetics in mice; mice, oral): lack of dose
outcome of cure assay (T. cruzi Brazil strain; 25 mg/kg, 40 day treatment, wild-type mice and immunodeficient mice): could consistently resolve established T. cruzi infections
Parasite equivalent/ 50 ng of DNA of skeletal muscle (T. cruzi Brazil strain; [9]): 0.00339 Parasite equivalent/ 50 ng of DNA and 0.0112 Parasite equivalent/ 50 ng of DNA and 0.00674 Parasite equivalent/ 50 ng of DNA and 0.0326 Parasite equivalent/ 50 ng of DNA and 0.00218 Parasite equivalent/ 50 ng of DNA and 6.96e-5 Parasite equivalent/ 50 ng of DNA and 0.03 Parasite equivalent/ 50 ng of DNA
Parasite equivalent/ 50 ng of DNA of skeletal muscle (T. cruzi Brazil strain; [10]): 3.39 Parasite equivalent/ 50 ng of DNA and 0.89 Parasite equivalent/ 50 ng of DNA and 0.07 Parasite equivalent/ 50 ng of DNA and 1.14 Parasite equivalent/ 50 ng of DNA and 0.69 Parasite equivalent/ 50 ng of DNA and 1.27 Parasite equivalent/ 50 ng of DNA
Parasite Equivalents/50ng of DNA of skeletal muscle (T. cruzi Brazil strain; IFNg KO mice): 0.000877 Parasite Equivalents/50ng of DNA and 0.0011 Parasite Equivalents/50ng of DNA and 0.000197 Parasite Equivalents/50ng of DNA and 0.013 Parasite Equivalents/50ng of DNA and 0.002 Parasite Equivalents/50ng of DNA and 0.00327 Parasite Equivalents/50ng of DNA and 0.004 Parasite Equivalents/50ng of DNA and 0.00265 Parasite Equivalents/50ng of DNA and 0.000622 Parasite Equivalents/50ng of DNA
Parasite Equivalents/50ng of DNA of skeletal muscle (T. cruzi Brazil strain; mice, 10 mg/kg): 0.00752 Parasite Equivalents/50ng of DNA and 0.05 Parasite Equivalents/50ng of DNA and 0.00 Parasite Equivalents/50ng of DNA
Parasite Equivalents/50ng of DNA of skeletal muscle (T. cruzi Brazil strain; mice, 25 mg/kg): 0.00369 Parasite Equivalents/50ng of DNA and 0.00 Parasite Equivalents/50ng of DNA and 0.00185 Parasite Equivalents/50ng of DNA and 0.0154 Parasite Equivalents/50ng of DNA
pIC50 [6, 11]: 9.30
pIC50 [6, 12]: 8.22

Cc1c(C(=O)N[C@H](C(=O)OCC2CCOCC2)C(C)C)ccc2c1B(O)OC2 [AN15368]
pIC50 [2]: 7.93
genotoxicity, in vitro micronucleus [3]: non-genotoxic
inhibition of representative cytochrome P450 enzymes [4]: did not demonstrate significant inhibition
affinity for mammalian enzymes, receptors and ion channels [5]: little to no affinity
genotoxicity, Ames (Ames study): non-genotoxic
exposure AUC0-last (Pharmacokinetics in mice; mice, 10mg/kg dose): 17.5 µg·h/kg
minimal curative exposure in mice (Pharmacokinetics in mice; mouse, in vivo, 2.5 mg/kg): 4.375 µg·h/kg
minimal efficacious dose in mice (T. cruzi Brazil strain; 40 day treatment cure assay, Fig 3e): 2.5 mg/kg
Parasite equivalent/ 50 ng of DNA of skeletal muscle (T. cruzi Brazil strain; [9]): 0.0182 Parasite equivalent/ 50 ng of DNA and 0.32 Parasite equivalent/ 50 ng of DNA and 0.00408 Parasite equivalent/ 50 ng of DNA and 0.015 Parasite equivalent/ 50 ng of DNA and 0.12 Parasite equivalent/ 50 ng of DNA and 0.09 Parasite equivalent/ 50 ng of DNA and 0.06 Parasite equivalent/ 50 ng of DNA
Parasite equivalent/ 50 ng of DNA of skeletal muscle (T. cruzi Brazil strain; [10]): 0.60 Parasite equivalent/ 50 ng of DNA and 0.12 Parasite equivalent/ 50 ng of DNA and 6.19 Parasite equivalent/ 50 ng of DNA and 0.32 Parasite equivalent/ 50 ng of DNA and 0.45 Parasite equivalent/ 50 ng of DNA
Parasite equivalent/ 50 ng of DNA of skeletal muscle (T. cruzi Brazil strain; Fig. 3e, mice treated for 40 days with 2.5 mg/kg, 2.5 mg/kg): 0.7074 Parasite equivalent/ 50 ng of DNA and 0.07409 Parasite equivalent/ 50 ng of DNA and 0.06686 Parasite equivalent/ 50 ng of DNA and 0.2452 Parasite equivalent/ 50 ng of DNA and 0.02329 Parasite equivalent/ 50 ng of DNA and 2.237 Parasite equivalent/ 50 ng of DNA and 0.1466 Parasite equivalent/ 50 ng of DNA
outcome of cure assays (T. cruzi Brazil strain; mice, Fig. 3): cures T. cruzi infection in mice
% of maximum ([6]; Fig 5.d, WT, [uM] 0.60): -2%
activity at 0.6 µM ([6]; Trypanosoma cruzi, Vero, 72 h, read-out: % of maximum, Fig 5.d, WT, [uM] 0.60): -2%
pIC50 ([6]; Trypanosoma cruzi, Vero, 120 h, read-out: WT IC50, WT intracellular amastigotes, control of CPSF3 mutant comparison, Fig. 5d): 7.92
pIC50 [6, 11]: 8.62
pIC50 ([6]; Trypanosoma cruzi, Vero, read-out: WT IC50, WT intracellular amastigotes, control of TcCBP KO comparison): 8.62
pIC50 [6, 12]: 8.30
Funbound (cyno) [7]: 21%
% of maximum ([8]; 0.10): 3% and 1%
% of maximum ([8]; 0.40): -6%
% of maximum ([8]; 0.70): 2% and -5%
% of maximum ([8]; 1.00): -6% and -2%
% of maximum ([8]; 1.30): -4% and -2% and 5%
% of maximum ([8]; -0.51): 97% and 106% and 96%
% of maximum ([8]; -0.81): 96% and 123% and 105%
% of maximum ([8]; -1.11): 92% and 97% and 122%
pIC50 ([8]; Trypanosoma cruzi, read-out: CPSF3 mutant IC50): 6.30
